Results taken from the supplement of paper PMC10307832.

Legend:
Assay in all cases: relative viability (nuclei count vs DMSO), 5 days (fraction); higher = more cells survive
Vemurafenib + Olaparib = compound: CCCS(=O)(=O)Nc1ccc(F)c(C(=O)c2c[nH]c3ncc(-c4ccc(Cl)cc4)cc23)c1F [Vemurafenib] + O=C(c1cc(Cc2n[nH]c(=O)c3ccccc23)ccc1F)N1CCN(C(=O)C2CC2)CC1 [Olaparib] (partner 8 µM)
How it was run: (§1)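 Cells from lung cancer lines were seeded into 1536-well plates and, one day later, dosed by pin tool. Treatments were either a single drug or a fixed dose of an anchor drug with five library-drug doses (not always all listed) in √10 steps. After 5 days, nuclei were stained in a one-step fixation (final 0.05% Triton X-100, 1% formaldehyde, 1 ug/ml Hoechst) and counted on 4× images, and relative viability is the treated-to-vehicle nuclei ratio, as the median of duplicate plates.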

OSI-027 + Tozasertib = compound: COc1cccc2cc(-c3nc([C@H]4CC[C@H](C(=O)O)CC4)n4ncnc(N)c34)[nH]c12 [OSI-027] + Cc1cc(Nc2cc(N3CCN(C)CC3)nc(Sc3ccc(NC(=O)C4CC4)cc3)n2)n[nH]1 [Tozasertib] (partner 0.1 µM)
How it was run: as §1

OSI-027 + Phenformin = compound: COc1cccc2cc(-c3nc([C@H]4CC[C@H](C(=O)O)CC4)n4ncnc(N)c34)[nH]c12 [OSI-027] + N=C(N)NC(=N)NCCc1ccccc1 [Phenformin] (partner 250 µM)
How it was run: as §1

OSI-027 + Pictilisib = compound: COc1cccc2cc(-c3nc([C@H]4CC[C@H](C(=O)O)CC4)n4ncnc(N)c34)[nH]c12 [OSI-027] + CS(=O)(=O)N1CCN(Cc2cc3nc(-c4cccc5[nH]ncc45)nc(N4CCOCC4)c3s2)CC1 [Pictilisib] (partner 1 µM)
How it was run: as §1

Work on UMC-11 yielded a relative viability (Vemurafenib + Olaparib; first compound 0.03162 µM) of 0.391, a relative viability (Vemurafenib + Olaparib; first compound 0.1 µM) of 0.4 and a relative viability (Vemurafenib + Olaparib; first compound 0.3162 µM) of 0.392. For the same cell line, the relative viability (Vemurafenib + Olaparib; first compound 1 µM) was 0.375, the relative viability (OSI-027 + Tozasertib; first compound 0.01 µM) was 0.235 and the relative viability (OSI-027 + Tozasertib; first compound 0.03162 µM) was 0.208. For the same cell line, the relative viability (OSI-027 + Tozasertib; first compound 0.1 µM) was 0.203, the relative viability (OSI-027 + Tozasertib; first compound 0.3162 µM) was 0.204 and the relative viability (OSI-027 + Tozasertib; first compound 1 µM) was 0.2. For the same cell line, the relative viability (OSI-027 + Phenformin; first compound 0.01 µM) was 0.337, the relative viability (OSI-027 + Phenformin; first compound 0.03162 µM) was 0.366 and the relative viability (OSI-027 + Phenformin; first compound 0.1 µM) was 0.311. The relative viability (OSI-027 + Phenformin; first compound 0.3162 µM) was 0.311, the relative viability (OSI-027 + Phenformin; first compound 1 µM) was 0.274 and the relative viability (OSI-027 + Pictilisib; first compound 0.01 µM) was 0.739. The relative viability (OSI-027 + Pictilisib; first compound 0.03162 µM) was 1.03, the relative viability (OSI-027 + Pictilisib; first compound 0.1 µM) was 0.664 and the relative viability (OSI-027 + Pictilisib; first compound 0.3162 µM) was 0.636. It also gave a relative viability (OSI-027 + Pictilisib; first compound 1 µM) of 0.412.
